Source: patent US20240270762A1, “PENICILLIN-BINDING PROTEIN INHIBITORS” (priority 2021, published 2024)
In brackets after ≈: the same amount, converted by molar mass. Like-named read-outs stand apart in the source and are kept apart here.

Legend:
[1] = target: T1, PBP2 from Neisseria gonorrhoeae (FA19) (Neisseria gonorrhoeae, UniProt P08149); experiment: Bocillin-FL fluorescence polarization competition binding, N. gonorrhoeae PBP2; settings: fluorescence polarization competition binding assay using Bocillin-FL, read-out: N. gonorrhoeae PBP2 Potency
T1 construct: made in house
In short: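 Fluorescence polarization competition with 0.1 μM Bocillin-FL (fluorescent penicillin V) against 0.25 μM N. gonorrhoeae FA19 PBP2 in 50 mM Hepes pH 8.0, 300 mM NaCl, 10% glycerol. Boronic acid inhibitors were preincubated with PBP, then Bocillin-FL was added and FP read (490/520 nm) up to 60 min. EC50 is the concentration halving PBP-bound Bocillin-FL.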

E. coli ATCC 25922 = experiment: microbe, parasite or virus in culture; type: cell-based; settings: Escherichia coli, ATCC25922, read-out: MIC E. coli 25922
E. coli AG100 = experiment: microbe, parasite or virus in culture; type: cell-based; settings: Escherichia coli, AG100, read-out: MIC E. coli AG100
E. coli 901C = experiment: microbe, parasite or virus in culture; type: cell-based; settings: Escherichia coli, read-out: MIC E. coli 901C
E. coli D22 = experiment: microbe, parasite or virus in culture; type: cell-based; settings: Escherichia coli, D22, read-out: MIC E. coli D22
E. coli AG100A = experiment: Broth microdilution MIC in CAMHB; type: cell-based; settings: Escherichia coli, read-out: MIC E. coli AG100A
K. pneumoniae 848844 = experiment: microbe, parasite or virus in culture; type: cell-based; settings: Klebsiella pneumoniae, 848844, read-out: MIC K. pneumoniae 848844
K. pneumoniae UMM = experiment: microbe, parasite or virus in culture; type: cell-based; settings: Klebsiella pneumoniae, read-out: MIC K. pneumoniae UMM
K. pneumoniae SI-117 = experiment: microbe, parasite or virus in culture; type: cell-based; settings: Klebsiella pneumoniae, SI117, read-out: MIC K. pneumoniae SI-117
P. aeruginosa ATCC 27853 = experiment: microbe, parasite or virus in culture; type: cell-based; settings: Pseudomonas aeruginosa, ATCC27853, read-out: MIC P. aeruginosa ATCC 27853
A. baumannii ATCC 19606 = experiment: microbe, parasite or virus in culture; type: cell-based; settings: Acinetobacter baumannii, ATCC19606, read-out: MIC, A. baumannii ATCC 19606
P. aeruginosa ATCC 35151 = experiment: microbe, parasite or virus in culture; type: cell-based; settings: Pseudomonas aeruginosa, ATCC35151, read-out: MIC P. aeruginosa ATCC 35151
[2] = test system: P. aeruginosa (ΔmexAB-oprM); experiment: Broth microdilution MIC in CAMHB; type: cell-based; settings: Pseudomonas aeruginosa; read-out: MIC P. aeruginosa ΔmexAB-oprM
[3] = test system: N. gonorrhoeae ATCC 49226; experiment: Liquid broth MIC in Fastidious broth; settings: Neisseria gonorrhoeae
N. gonorrhoeae WHO L = experiment: Liquid broth MIC in Fastidious broth; settings: Neisseria gonorrhoeae
N. gonorrhoeae WHO K = experiment: Liquid broth MIC in Fastidious broth; settings: Neisseria gonorrhoeae
N. gonorrhoeae WHO Z = experiment: Liquid broth MIC in Fastidious broth; settings: Neisseria gonorrhoeae
B. pseudomallei Bp82 = experiment: microbe, parasite or virus in culture; type: cell-based; settings: Burkholderia pseudomallei, BP82, read-out: Minimum inhibitory concentration, B. pseudomallei Bp82

T1 sequence (P08149 whole entry): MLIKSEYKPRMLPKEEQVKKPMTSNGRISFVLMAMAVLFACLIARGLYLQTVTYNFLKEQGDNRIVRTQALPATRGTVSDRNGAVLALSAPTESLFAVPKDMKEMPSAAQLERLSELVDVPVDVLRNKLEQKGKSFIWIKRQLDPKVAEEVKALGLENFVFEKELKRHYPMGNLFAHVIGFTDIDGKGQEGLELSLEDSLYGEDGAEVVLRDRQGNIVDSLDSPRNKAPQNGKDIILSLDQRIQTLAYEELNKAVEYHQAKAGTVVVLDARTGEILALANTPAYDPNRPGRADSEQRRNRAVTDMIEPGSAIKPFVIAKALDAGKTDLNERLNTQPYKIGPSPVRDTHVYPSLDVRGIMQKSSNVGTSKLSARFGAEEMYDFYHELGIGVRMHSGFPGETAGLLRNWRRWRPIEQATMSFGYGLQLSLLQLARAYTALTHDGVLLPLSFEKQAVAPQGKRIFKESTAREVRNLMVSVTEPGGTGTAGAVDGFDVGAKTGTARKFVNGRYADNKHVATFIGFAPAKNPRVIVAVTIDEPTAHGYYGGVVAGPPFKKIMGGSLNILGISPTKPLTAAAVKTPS

Which results are given for `O=C(O)c1cccc2c1OB(O)[C@@H](NC(=O)C(NC(=O)N1CCN(CC(F)(F)F)C(=O)C1=O)c1ccc(P(=O)(O)O)cc1)C2` (stereo partly drawn) [Example 4, (3R)-3-(2-(2,3-dioxo-4-(2,2,2-trifluoroethyl)piperazine-1-carboxamido)-2-(4-phosphonophenyl)acetamido)-2-hydroxy-3,4-dihydro-2H-benzo[e][1,2]oxaborinine-8-carboxylic acid]?
EC50 [1]: < 10 µM; MIC (E. coli ATCC 25922): > 128 µg/mL; MIC (E. coli AG100): > 128 µg/mL; MIC (E. coli 901C): < 1 µg/mL; MIC (E. coli D22): 8 to 16 µg/mL (≈ 12.5 to 24.9 µM); MIC (E. coli AG100A): 8 to 16 µg/mL (≈ 12.5 to 24.9 µM); MIC (K. pneumoniae 848844): > 128 µg/mL; MIC (K. pneumoniae UMM): > 128 µg/mL; MIC (K. pneumoniae SI-117): > 128 µg/mL; MIC (P. aeruginosa ATCC 27853): > 128 µg/mL; MIC (A. baumannii ATCC 19606): > 128 µg/mL; MIC (P. aeruginosa ATCC 35151): 8 to 16 µg/mL (≈ 12.5 to 24.9 µM); MIC [2]: 32 to 64 µg/mL (≈ 49.8 to 99.7 µM); MIC ([3]; ATCC49226, read-out: Minimum Inhibitory Concentration (MIC), N. gonorrhoeae ATCC 49226): < 1 µg/mL; MIC (N. gonorrhoeae WHO L; read-out: Minimum Inhibitory Concentration (MIC), N. gonorrhoeae WHO L): 4 to 8 µg/mL (≈ 6.23 to 12.5 µM); MIC (N. gonorrhoeae WHO K; read-out: Minimum Inhibitory Concentration (MIC), N. gonorrhoeae WHO K): 1 to 2 µg/mL (≈ 1.56 to 3.11 µM); MIC (N. gonorrhoeae WHO Z; read-out: Minimum Inhibitory Concentration (MIC), N. gonorrhoeae WHO Z): 1 to 2 µg/mL (≈ 1.56 to 3.11 µM)

How did the MIC (B. pseudomallei Bp82) turn out when `O=C(NCCN1CCN(C(=O)N[C@@H](C(=O)N[C@H]2Cc3ccc(F)c(C(=O)O)c3OB2O)c2cc(F)c(O)c(O)c2Cl)C1=O)Nc1ccc(O)cc1` [Example 279, (R)-3-((R)-2-(2-chloro-5-fluoro-3,4-dihydroxyphenyl)-2-(3-(2-(3-(4-hydroxyphenyl)ureido)ethyl)-2-oxoimidazolidine-1-carboxamido)acetamido)-7-fluoro-2-hydroxy-3,4-dihydro-2H-benzo[e][1,2]oxaborinine-8-carboxylic acid] was run?
Its MIC is less than 1 µg/mL.

What about the MIC ([3]; ATCC49226, read-out: Minimum Inhibitory Concentration, ATCC 49226) of the same compound?
The MIC was 4 to 8 µg/mL (≈ 5.46 to 10.9 µM).

And the MIC (N. gonorrhoeae WHO L; read-out: Minimum Inhibitory Concentration, WHO L)?
The MIC was 16 to 32 µg/mL (≈ 21.8 to 43.7 µM).

What about the MIC (N. gonorrhoeae WHO K; read-out: Minimum Inhibitory Concentration, WHO K) of the same compound?
Its MIC is 16 to 32 µg/mL (≈ 21.8 to 43.7 µM).

And the MIC (N. gonorrhoeae WHO Z; read-out: Minimum Inhibitory Concentration, WHO Z)?
Its MIC is 4 to 8 µg/mL (≈ 5.46 to 10.9 µM).
